Experimental data from PMC7772935, “Plant-Derived Compounds as a Tool for the Control of Gastrointestinal Nematodes: Modulation of Abamectin Pharmacological Action by Carvone” (Frontiers in Veterinary Science, 2020).
Marks after values point to notes of the source that are not given here.

Tests used:
sheep intestine = system: sheep intestine; set-up: method as in PMID 24611483; settings: Ussing chambers; cited from earlier work
P-gp = system: P-gp; set-up: method as in PMID 16384552; settings: read-out: Concentration that inhibited the activated ATPase activity by 50%; cited from earlier work
bovine ileal explants [1] = assay: ABM accumulation in bovine ileal explants, modulation by R-CNE or IVM; format: in vitro ADME, cattle; settings: 0.05 μM ABM; for Effect on ABM accumulation in intestinal explants: 3.33 mM R-CNE or 0.5 μM IVM, 15-60 min
From the text: Cattle ileum samples were obtained from a local slaughterhouse ([…], Argentina) located 16 km away from the laboratory facilities.

[2] = Undesirable effects after oral administration in the in vivo assay; settings: lambs, R-CNE 100 mg/kg, four oral doses every 24 h
From the text: (§1) All the animals had free access to water. Lambs were assigned to three experimental groups.

[3] = R-CNE plasma concentrations after oral administration to lambs; format: in vivo; settings: Corriedale and Texel crossbreed, sheep, 100 mg/kg oral, four doses every 24 h, after each dose
Experimental: as §1
R-CNE analysis was performed according the technique described by Tao and Pereira ([23]), with modifications. Aliquots of plasma (0.25 mL) were mixed with acetonitrile, agitated and centrifuged. Supernatants were injected into the HPLC system fitted with a Kromasil C18 column. The mobile phase was water/acetonitrile (40/60) at an isocratic flow of 1.3 mL/min. R-CNE was analyzed using a UV detector (Shimadzu, SPD-10A).
(§2) Data are expressed as mean ± standard deviation (SD). […] Differences were considered statistically significant at p < 0.05.

bovine ileal explants [4] = system: bovine ileal explants
From the text: as §2

[5] = system: Haemonchus spp. eggs and larvae; set-up: method as in PMID 28807309; settings: in vitro; cited from earlier work
[6] = system: Haemonchus contortus egg hatch; set-up: method as in PMID 28807309; settings: in vitro; cited from earlier work
[7] = ABM plasma disposition after oral administration to lambs; settings: ABM 0.2 mg/kg oral, alone or with R-CNE 4 x 100 mg/kg every 24 h, mean ± SD, n = 8
From the text: as §2

P-gp transport = system: P-gp transport; set-up: method as in PMID 25865432; settings: cited from earlier work
[8] = system: resistant gastrointestinal nematodes; assay: Fecal egg count reduction test in naturally infected lambs; format: in vivo
Experimental: as §1
The fecal samples were analyzed to obtain the epg counts. The coprocultures were prepared with 10 g of feces from a pool of each experimental group obtained on days−1 and 14. The nematode genera and species were identified through the third-stage larvae recovered from the coprocultures ([24]). The fecal egg count reduction test (FECRT) was calculated using the Abbott's formula ([25]), with modifications: […]
where T1 and T2 are the arithmetic mean epg counts in the treated group on days 0 and 14, respectively, and C1 and C2 are the arithmetic mean epg counts in the control group on days 0 and 14, respectively. The 95% confidence intervals were calculated following Coles et al. ([26]).

CC[C@H](C)[C@H]1O[C@]2(CC[C@@H]1C)C[C@@H]1C[C@@H](C/C=C(\C)[C@@H](O[C@H]3C[C@H](OC)[C@@H](O[C@H]4C[C@H](OC)[C@@H](O)[C@H](C)O4)[C@H](C)O3)[C@@H](C)/C=C/C=C3\CO[C@@H]4[C@H](O)C(C)=C[C@@H](C(=O)O1)[C@]34O)O2 [IVM, ivermectin]
Increase of Rho123 absorption in the presence of the inhibitor (sheep intestine): 69% | IC50 (P-gp): 2.5 µM | Effect on ABM accumulation in intestinal explants (bovine ileal explants [1]): significantly increased the accumulation of ABM in the intestinal explants at all incubation times

C=C(C)C1CC=C(C)C(=O)C1 (centres unmarked) [R-CNE, 5-isopropenyl-2-methyl-2-cyclohexenone]
Undesirable effects after oral administration [2]: no undesirable effects were observed | Cmax [3]: 1790 ± 598 ng/mL | Effect on Rho123 concentrations in the intestinal explants (bovine ileal explants [4]; 3.33 mM R-CNE, 15, 30, 45, 60 min): significantly increased Rho123 concentrations in the intestinal explants at all incubation times | Rho123 concentration in intestinal explants, % higher than Rho123 incubated alone (bovine ileal explants [4]; 60 min of incubation, 3.33 mM R-CNE, 0.5 μM Rho123): 67 ± 21% | Concentrations necessary to obtain an efficacy >90% [5]: 370 µg/mL | Effect on ABM accumulation in intestinal explants (bovine ileal explants [1]): increased the intestinal concentration of the synthetic anthelmintic ABM at 15 and 30 min of incubation | Intestinal concentration of ABM, % higher than control (ABM alone) (bovine ileal explants [1]; 30 min of incubation, 3.33 mM R-CNE): 28.1 ± 35.7% | 50% lethal concentration [6]: 85 µg/mL

COC(=O)c1ccccc1-c1c2ccc(=N)cc-2oc2cc(N)ccc12 [Rho123, Rhodamine 123]
Accumulation rate of Rho123 (bovine ileal explants [4]; male, Aberdeen Angus/Hereford crossbreed, cattle, 0.5 µM): 0.69 ± 0.19 ρg Rho/min/mg tissue

abamectin [ABM]
AUC0−168h of ABM [7]: 815.67 ± 303.1 | Cmax of ABM [7]: 16.20 ± 10.2^a μg/mL | Tmax of ABM [7]: 10.75 ± 9.6^a h | T½ el (elimination half-life) of ABM [7]: 28.04 ± 8.1^a h | Concentrations necessary to inhibit P-gp transport, fold lower than to inhibit MRPs-mediated transport (P-gp transport): 3 fold | Mean epg counts Day 14 ([8]; 14 days after oral administration, mean ± SD): 45 ± 121 epg | Classification of drug efficacy according to Coles et al. ([8]; FECRT criteria): suspected of resistance | Mean epg counts Day 0 ([8]; before treatment, mean ± SD): 2,193 ± 858 epg | FECR (LCL-UCL) ([8]; day 14, 95% confidence limits): 94.9 (65.0-99.0) % | Proportion of Haemonchus spp. in coprocultures after treatment ([8]; day 14, third-stage larvae): 88% | Proportion of Teladorsagia spp. in coprocultures after treatment ([8]; day 14, third-stage larvae): 12%
